Key:
[1] = test system: human skin explants; assay: UV-induced 8-oxoG in human skin explants (immunohistochemistry); format: cell-based; settings: epidermis; treatment of UV-exposed explants (post-treatment, RM191A Gel 2); vs UV-exposed controls
Description: FIG. 5. (A) Representative images of immunohistochemical staining of 8-oxoG in human explants from isotype control and sham exposed explants. (B) Representative images of immunohistochemical staining of 8-oxoG in human skin explants from UV-exposed explants. (C-D) Analysis of 8-oxoG in (C) epidermis and (D) dermis of skin explants. Bars indicate significant differences **** p<0.001; NS=not significant between data sets (n=3 explants per data point).
(§1) Exposure of skin to UV radiation induces oxidative stress via a dramatic increase in ROS (see, Dunaway et al., 2018). In this section of the research work we measured oxidative DNA damage caused by UV-induced cyclobutene pyrimidine dimers (CPD), oxidative DNA damage resulting from UV-induced 8-oxo-guanine (8-oxoG), and nitrosative DNA damage caused by 8-nitroguanine (8NG) (Mason et al., 2013). Typically, if these DNA lesions are not adequately repaired, they lead to mutations which may then lead to the development of skin tumours (Mason et al., 2013). Our primary objective here was to determine if RM191A, when applied topically to ex vivo human skin, reduced UV-induced DNA damage.
(§2) The same treatment protocols were also followed for a placebo gel which contained no RM191A. […]

[2] = test system: human skin explants; assay: UV-induced CPD in human skin explants (immunohistochemistry); format: cell-based; settings: epidermis; treatment of UV-exposed explants (post-treatment, RM191A Gel 2); vs UV-exposed controls
Description: FIG. 4: RM191A protects against UV-induced oxidative stress. (A) Representative images of immunohistochemical staining of CPDs in human explants from isotype control and sham exposed explants. There was little staining in the isotype control. […] (B) Representative images of immunohistochemical staining of CPDs in human skin explants from UV-exposed explants. (C) Analysis of CPD in epidermis of skin explants. Bars indicate significant differences **** p<0.001; NS=not significant between data sets (n=3 explants per data point).
as §1, §2

[3] = test system: human skin explants; assay: UV-induced 8-nitroguanine (8NGO) in human skin explants (immunohistochemistry); format: cell-based; settings: either protocol
Description: FIG. 6. (A) Representative images of immunohistochemical staining of 8NGO in human explants from isotype control and sham exposed explants. (B) Representative images of immunohistochemical staining of 8NGO in human skin explants from UV-exposed explants. (C-D) Analysis of 8NGO in epidermis (C) and dermis (D) of skin explants. Bars indicate significant differences **** p<0.001; NS=not significant between data sets (n=3 explants per data point).
as §1, §2

[4] = NBT superoxide scavenging (SOD-like activity) assay; format: biochemical; settings: for Absorbance 560 nm Ave: SOD primary data
Description: The purpose of these experiments was to measure the Superoxide Dismutase-like (SOD-like) activity of the copper ion complex (RM191A) depicted in the Examples below as “Cu”. The inventors employed a modified version of the method described by Beauchamp and Fridovich (see, Beauchamp et al. 1971). The reason for this modification was to create a reaction mixture that successfully generates known quantities of the O2^− free radical but does so at a pH at which the copper ion complex is stable—specifically in the range pH 6.5-7.8.
Because of the instability of its substrate, all available chemical assays of SOD and SOD-like activity are necessarily indirect and depend upon its ability to scavenge O2^− from reaction mixtures and thus to inhibit reactions caused by O2^−.
NitroBlue Tetrazolium (NBT) was selected as an indicator to measure and compare the superoxide scavenging activities of both bovine SOD and the copper ion complex (“RM191A,” the preparation of which is described in detail in International PCT Patent Publication No. WO/AU2016/201524), This assay utilizes photochemical events to generate O2^− in a sodium tetraborate buffered solution of acetone and isopropanol which is then irradiated by high energy UV light at 254 nm (Mercury Vapour Lamp) to create O2^− in the solution.
SOD and SOD-like substances inhibit the formation of the blue formazan by neutralising the superoxide free radicals as they are forming. Blue formazan has a characteristic UV absorbance at 560 nm. The quantitation of the UV absorbance of the reaction solution at 560 nm is a direct measure the SOD and SOD-like activity of a substance.
UV absorbances of the reaction solutions were measured at 560 nm following irradiation with UV light to determine the superoxide free radical scavenging activity in situ of both bovine SOD and the copper ion complex (RM191A).
Each reaction solution consists of 0.5 ml of 200 μmol/L NBT in borate buffer (pH=7.1) and 0.5 ml of a 200 μmol/L solution of the test compound in 5.0 mL of 5 mol/L isopropanol.
To each reaction vessel 15 mg acetone (20 μL) as added to begin the reaction. Each vessel was then irradiated with UV light at 254 nm (mercury vapour lamp) for 1 minute.
The reaction solution was then transferred into UV Vis cells and the absorbance at 560 nm was measured.
A number of test solution concentrations were assayed by adding, 1.0, 1.25, 1.5, 1.75, 2.0 mL of a 200 μmol/L solution of the test compound and bringing the total volume to 5.0 mL with 5 mol/L isopropanol.
The method uses a Cu control to remove the minor background copper absorbance.

Row | Compound | decrease in nuclear 8-oxoG [1] [%] | decrease in CPD [2] [%] | 8NGO vs UV-exposed controls [3] | Absorbance (Table 5) ([4]; 1.6 μM) | Absorbance (Table 5) ([4]; 20 μM) | Absorbance (Table 5) ([4]; 40 μM) | Absorbance (Table 5) ([4]; 80 μM) | Absorbance 560 nm Ave ([4]; Molarity 0.0000016) | Absorbance 560 nm Ave ([4]; Molarity 0.00002) | Absorbance 560 nm Ave ([4]; Molarity 0.00004) | Absorbance 560 nm Ave ([4]; Molarity 0.00008) | Absorbance 560 nm Ave ([4]; Molarity 0.0001) | Absorbance 560 nm Ave ([4]; Molarity 0.00012) | Absorbance 560 nm Ave ([4]; Molarity 0.00014)
1 | C=C1/C(=C\C=C2/CCC[C@]3(C)[C@@H]([C@H](C)CCCC(C)(C)O)CC[C@@H]23)C[C@@H](O)C[C@@H]1O [1,25D, 1,25-dihydroxy vitamin D3] | 27 | 30 | significantly decreased |  |  |  |  |  |  |  |  |  |  | 
2 | SOD: bovine superoxide dismutase used as comparator |  |  |  | 0.2988 | 0.2879 | 0.2348 | 0.332 | 0.2988 | 0.2879 | 0.2348 | 0.332 | 0.3163 | 0.3215 | 0.3555
